In this assay the target is F508del-CFTR (Homo sapiens, UniProt P13569, DEL508-508). Description: fluorescence membrane potential assay in HEK-293 cells expressing F508del-CFTR, […] °C, forskolin activated. It counts as cell-based.
Chain of F508del-CFTR (P13569 with tags, fused parts or gaps DEL508-508): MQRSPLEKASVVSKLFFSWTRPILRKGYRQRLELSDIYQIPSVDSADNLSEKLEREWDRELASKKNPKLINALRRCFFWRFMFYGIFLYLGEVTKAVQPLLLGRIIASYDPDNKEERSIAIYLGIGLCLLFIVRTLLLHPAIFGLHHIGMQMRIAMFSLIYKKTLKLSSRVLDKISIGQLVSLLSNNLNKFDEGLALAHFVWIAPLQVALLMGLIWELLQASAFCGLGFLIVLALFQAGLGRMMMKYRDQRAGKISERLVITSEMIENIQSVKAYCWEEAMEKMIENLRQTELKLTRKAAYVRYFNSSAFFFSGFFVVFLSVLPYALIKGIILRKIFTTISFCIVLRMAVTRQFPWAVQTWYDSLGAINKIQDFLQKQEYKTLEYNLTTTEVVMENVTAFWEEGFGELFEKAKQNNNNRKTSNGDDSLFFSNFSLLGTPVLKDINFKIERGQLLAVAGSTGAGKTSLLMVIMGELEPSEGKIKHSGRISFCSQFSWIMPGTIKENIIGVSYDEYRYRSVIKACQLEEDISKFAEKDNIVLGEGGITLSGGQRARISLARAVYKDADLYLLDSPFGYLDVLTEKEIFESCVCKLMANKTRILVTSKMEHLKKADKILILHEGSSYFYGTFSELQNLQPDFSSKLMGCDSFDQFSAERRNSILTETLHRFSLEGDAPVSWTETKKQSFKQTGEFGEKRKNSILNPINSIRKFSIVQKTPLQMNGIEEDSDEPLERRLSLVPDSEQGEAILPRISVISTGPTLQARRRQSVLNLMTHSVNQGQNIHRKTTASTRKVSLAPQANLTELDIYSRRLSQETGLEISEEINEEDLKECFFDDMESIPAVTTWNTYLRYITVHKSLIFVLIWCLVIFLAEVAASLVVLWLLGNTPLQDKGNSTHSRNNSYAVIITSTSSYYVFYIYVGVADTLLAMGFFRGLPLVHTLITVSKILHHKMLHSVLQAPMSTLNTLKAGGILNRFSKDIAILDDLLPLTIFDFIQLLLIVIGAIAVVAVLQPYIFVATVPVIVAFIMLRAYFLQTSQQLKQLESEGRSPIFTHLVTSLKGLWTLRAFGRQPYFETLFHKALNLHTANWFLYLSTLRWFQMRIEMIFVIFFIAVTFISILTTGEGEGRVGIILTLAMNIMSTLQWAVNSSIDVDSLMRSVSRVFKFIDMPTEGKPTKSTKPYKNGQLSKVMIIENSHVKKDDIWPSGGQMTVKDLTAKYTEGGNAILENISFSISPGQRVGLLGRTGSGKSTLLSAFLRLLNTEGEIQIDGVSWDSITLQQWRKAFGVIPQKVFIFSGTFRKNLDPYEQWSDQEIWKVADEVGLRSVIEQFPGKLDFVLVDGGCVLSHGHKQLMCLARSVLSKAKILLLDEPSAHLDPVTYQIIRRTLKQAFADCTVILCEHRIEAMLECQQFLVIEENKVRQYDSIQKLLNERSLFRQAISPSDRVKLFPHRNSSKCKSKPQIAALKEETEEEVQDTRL

Regarding `CC(C)(C)c1cc(C(C)(C)C)c(NC(=O)c2c[nH]c3ccccc3c2=O)cc1O` [VX-770], the EC50 (as a rule, the midpoint of the concentration-response curve) worked out at 384 nM.

The values are drawn from paper PMC11234710, “Comparison of a novel potentiator of CFTR channel activity to ivacaftor in ameliorating mucostasis caused by cigarette smoke in primary human bronchial airway epithelial cells” (Respiratory Research, 2024).
